According to patent publication US20240197677A1 (VIVIER CANADA INC., priority 2016, published 2024):

Assays:
[1] = cited from earlier work
[2] = system: EpiDermFT™ (EFT-400) human in vitro tissue model
Procedure: EFT-400 tissues were treated with test compound every 48 hours for 4, 7 and 10 days.
Epidermal thickness was assessed by measuring 10 random regions of the Hematoxylin and Eosin (H&E) stained tissue sections using OlyVIA™ software.

| Structure (SMILES) | pKa [1] | Thickness of H&E stained tissue sections (FIGS. 1A-F) ([2]; 0.1% Putrescine for 4 days) | Epidermis Thickness, Tissue1, Av. ([2]; 0.1% Test Article, EFT-400 Tissue1, average of 10 regions) [μm] | Epidermis Thickness, Tissue2, Av. ([2]; 0.1% Test Article, EFT-400 Tissue2, average of 10 regions) [μm] | Epidermis Thickness, Tissue3, Av. ([2]; 0.1% Test Article, EFT-400 Tissue3, average of 10 regions) [μm] | Epidermis Thickness, Av. of three tissues ([2]; 0.1% Test Article, average over Tissue1-3 (untreated 80.264 μm)) [μm] | Average increase of epidermal thickness versus untreated tissues ([2]; 0.1% putrescine) | Epidermal thickness, average ([2]; 0.1% putrescine basolaterally in culture medium, 10 random regions of H&E sections) [μm] | Epidermal tissue thickness, visual (Cytokeratin 10 / desmoplakin-1 immunostaining) ([2]; after 4 days, 0.1% Putrescine) | Tissue morphology ([2]; day 4, 0.1% Putrescine) |
| --- | --- | --- | --- | --- | --- | --- | --- | --- | --- | --- |
| O=C1O[C@H]([C@@H](O)CO)C(O)=C1O [Vitamin C, L-ascorbic acid, reference compound] | around 4.17 |  |  |  |  |  |  |  |  |  |
| Cl.Cl.NCCCCN [putrescine, 1,4-Diaminobutane dihydrochloride] | 10.51 | increased thickness | 113.846 | 117.160 | 121.676 | 117.561 | over 46% | 117.561 | visually appear thicker than the untreated control tissues | consistent with healthy tissue |
